Experimental data as given in patent US6964780B1, “Controlled-release pharmaceutical formulations” (Pfizer Inc., priority 1998, dated 2005).
Counter-ions that a name gives are not always drawn.

Test: solubility of sildenafil citrate as a function of pH
Format: physicochemical
Conditions: at pH values greater than 6
Text: Matrix formulations according to the present invention may contain a buffering agent. This is particularly useful when the formulation contains sildenafil citrate. A buffering agent of particular interest is aspartic acid. When it forms part of a matrix tablet, aspartic acid acts as a buffering agent to maintain a low pH at the surface of the tablet. […] When present, aspartic acid will typically make up 15–30% by weight of the formulation.

solubility: low solubility
Structure (SMILES): CCCc1nn(C)c2c(=O)[nH]c(-c3cc(S(=O)(=O)N4CCN(C)CC4)ccc3OCC)nc12 [sildenafil citrate, Sildenafil citrate]
